According to patent US20060009433A1, “Neuroprotective spirostenol pharmaceutical compositions” (priority 2003, published 2006):
“Also recorded” adds a separate entry of the source.

How the values were obtained:
[1] = target: T1, Aβ (Homo sapiens, UniProt P05067); experiment: CPBBA displacement of radiolabeled 22R-hydroxycholesterol from Aβ (Example II); type: binding; conditions: 100 μM unlabeled compound; 50 μM Aβ
T1 construct: Aβ1-42 peptide was purchased from American Peptide Co; purchased American Peptide Co. (Sunnyvale, Calif.)
T1 sequence (P05067 672-713): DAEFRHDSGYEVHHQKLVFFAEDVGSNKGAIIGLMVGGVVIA
Protocol: At the end of the incubation time, samples were separated by 1.5% agarose (Type I-B) gel electrophoresis under native conditions and transferred to nitrocellulose membrane (Schleicher&Schuell, Keene, N.H.) in 10×SSC buffer. The membrane was exposed to tritium-sensitive screen and analyzed by phosphoimaging using the Cyclone Storage phosphor system (Packard BioScience). Image-densitometric analysis was performed using the OptiQuant software (Packard BioScience). […] Low molecular weight unincorporated 22R-hydroxycholesterol and derivatives are separated and eliminated during electrophoresis.

[2] = target: T1, Aβ; experiment: Immunoblot analysis of Aβ polymerization and ADDL formation; type: biochemical; conditions: SP233 1, 10, 100 μM
Protocol: Increasing concentration of Aβ (0.1, 1 and 10 μM) were incubated in PC12 culture medium for 24 hours and 72 hours at 37° C. under 5% CO2 with or without increasing concentrations of SP233 (1, 10 and 100 μM). At the end of the incubation time, samples were separated by 4-20% Tris-Glycine gel electrophoresis (Invitrogen) under native conditions at 125V for 2 hours and transferred to nitrocellulose membrane (Hybond™ ECL™, Amersham Pharmacia Biotech) at […] for 30 minutes. Non-specific adsorption of the antibodies was blocked by incubating the nitrocellulose in 5% milk. The blots were treated for immunodetection of Aβ species using a polyclonal antibody to Aβ that recognizes a 30 amino acid peptide of the Aβ protein (Zymed Laboratories, San Francisco, Calif.). Membranes were incubated in primary antibody for 1 hour at room temperature at a dilution of 1:2,000. Then, membranes were incubated in the secondary antibody at a dilution of 1:1,000 for 1.5 hours at room temperature. The blots were visualized using the ECL™ Western Blotting Analysis System (Amersham Biosciences). Image-densitometric analysis was performed using the OptiQuant software (Packard BioScience). This method allows for the separation, visualization and identification of Aβ complexes, polymers and ADDLs.

[3] = test system: MA-10 mouse tumor Leydig cells; experiment: Steroid (progesterone) formation in MA-10 Leydig cells; type: in vitro ADME; conditions: MA-10 cells, 2 hours
Protocol: (§1) PC12 cells (rat pheochromocytoma neurons) from ATCC (Manassas, Va.) were cultured at 37° C. and 5% CO2 in RPMI 1640 medium devoid of glutamine and supplemented with 10% fetal bovine serum and 5% horse serum. Yao Z, Drieu K and Papadopoulos V., The Gingko biloba extract EGb 761 rescues PC12 neuronal cells from β-amyloid-induced cell death by inhibiting the formation of (3-amyloid-derived diffusible neurotoxic ligands, Brain Res, 889, 181-190 (2001). Cells were seeded in 96-well plates (8×10^4 cells/well). After an overnight period of incubation, increasing concentrations of aggregated Aβ (0.1, 1 and 10 μM) were added to the cells in the presence or absence of the indicated concentrations of the SP compounds to be tested. After 72-hours incubation time various parameters, markers of cell viability, were determined. Mouse MA-10 tumor Leydig cells were maintained at 37° C. in DMEM/Ham's F12 (Biofluids, Rockville, Md.) medium supplemented with 5% heat-inactivated fetal calf serum and 2.5% horse serum in 5% CO2. Cells were plated on 96-well plates at the density of 2.5×10^4 cells/well for overnight. […]
Progesterone production by MA-10 cells was measured by radioimmunoassay using anti-progesterone antisera (ICN, Costa Mesa, Calif.), following the conditions recommended by the manufacturer. […] Radioimmunoassay data was analyzed using the MultiCalc software (EG&G Wallac, Gaithersburg, Md.). […]

[4] = test system: PC12 cells; experiment: Cellular ATP levels (ATPLite-M) in Aβ-treated PC12 cells; type: cell-based, rat; conditions: 0.1 and 1.0 μM Aβ
Protocol: (§2) PC12 cells (rat pheochromocytoma neurons) from ATCC (Manassas, Va.) were cultured at 37° C. and 5% CO2 in RPMI 1640 medium devoid of glutamine and supplemented with 10% fetal bovine serum and 5% horse serum. Yao Z, Drieu K and Papadopoulos V., The Gingko biloba extract EGb 761 rescues PC12 neuronal cells from β-amyloid-induced cell death by inhibiting the formation of (3-amyloid-derived diffusible neurotoxic ligands, Brain Res, 889, 181-190 (2001). Cells were seeded in 96-well plates (8×10^4 cells/well). After an overnight period of incubation, increasing concentrations of aggregated Aβ (0.1, 1 and 10 μM) were added to the cells in the presence or absence of the indicated concentrations of the SP compounds to be tested. After 72-hours incubation time various parameters, markers of cell viability, were determined. Mouse MA-10 tumor Leydig cells were maintained at 37° C. in DMEM/Ham's F12 (Biofluids, Rockville, Md.) medium supplemented with 5% heat-inactivated fetal calf serum and 2.5% horse serum in 5% CO2. Cells were plated on 96-well plates at the density of 2.5×10^4 cells/well for overnight. The cells were stimulated with the indicated concentrations of the various SP compounds in 0.2 ml/well serum-free medium for 2 hours. The culture medium was collected and tested for progesterone production by radioimmunoassay.
Cellular ATP concentrations were measured using the ATPLite-M™ luminescence assay (Packard BioSciences Co.). For this assay, cells were cultured on black 96-well ViewPlate™ and the ATP concentrations were measured on a TopCount NXT™ counter (Packard BioSciences Co.) following the recommendations of the manufacturer.

[5] = test system: PC12 cells; experiment: Membrane potential (CytoLite luminescence) in Aβ-treated PC12 cells; type: cell-based, rat; conditions: 10 μM Aβ
Protocol: as §2
Cells viability was also assessed using the luminescence-based kit CytoLite™ (Packard BioScience Co.) according to the recommendations of the manufacturer. Briefly, cells were cultured and treated in 96-well plates and after 72-hours incubation time, 25 μl of Activator solution was added to the cells followed by 150 μl of Amplifier solution. Luminescence was measured on a TopCount NXT™ counter (Packard BioSciences Co.) following a 5 minute precount delay.

[6] = test system: PC12 cells; experiment: Trypan blue uptake, Aβ-treated PC12 cells (Example II); type: cell-based, rat
Protocol: as §1
Cell viability was measured using the trypan blue exclusion method as we previously described. […] After washing three times with PBS, 0.1 N NaOH was added to the cells and trypan blue was quantified using the Victor quantitative detection spectrophotometer at 450 nm.

[7] = test system: PC12 cells (rat pheochromocytoma neurons); experiment: MTT cytotoxicity assay, Aβ-induced neurotoxicity in PC12 cells (Example II); type: cell-based
Protocol: as §2
The cellular toxicity of Aβ was assessed using the 3-(4,5-dimethylthiazol-2-yl)-2,5-diphenyl tetrazolium bromide (MTT) assay (Trevigen, Gaithersburg, Md.). Briefly, 10 μl of the MTT solution were added to the cells cultured in 100 μl medium. After an incubation period of 4 hours, 100 μl of detergent were added and cells were incubated overnight at 37° C. Formazan blue formation was quantified at 600 nm and 690 nm using the Victor quantitative detection spectrophotometer (EGG-Wallac, Gaithersburg, Md.) and the results expressed as (DO600-DO690). […] Liu Y and Schubert D, Steroid hormones block amyloid fibril-induced 3-(4,5-dimethylthiazol-2-yl)-2,5-diphenyltetrazolium bromide (MTT) formazan exocytosis: relationship to neurotoxicity, J. Neurochem., 19, 1639-1662 (1998). For that reason, additional cytotoxicity and cell viability assays were used.
Yao et al., J. Neurochem., 83, 1110-1119 (2002); and Yao et al., The Gingko biloba extract EGb 761 rescues PC12 neuronal cells from β-amyloid-induced cell death by inhibiting the formation of β-amyloid-derived diffusible neurotoxic ligands, Brain Res., 889, 181-190 (2001). To stay close to the concentrations of Aβ present in AD brain, 0.1-10 μM concentrations of Aβ were used. The compounds tested for their neuroprotective properties were examined at 30 and 50 μM concentrations (FIGS. 9-15).

[8] = MTT, compounds at 30 and 50 μM, 72 hours

SMILES: CCCCCC(=O)O[C@H]1CC[C@@]2(C)C(=CC[C@H]3[C@@H]4C[C@@H]5O[C@@]6(CC[C@H](C)CO6)[C@@H](C)[C@@H]5[C@@]4(C)CC[C@@H]32)C1 [SP233, (22S,25S)-(20S)-spirost-5-en-3β-yl hexanoate]
- displacement of radiolabeled 22R-hydroxycholesterol binding to Aβ [1]: 35%
- amount of Aβ polymeric species [2]: small dose-dependent increase
- trimeric and tetrameric ADDLs ([2]; 10 μM Aβ, 24 and 72 hours): dose-effect relationship is also observed; also recorded: decreased in a dose-dependent manner
- amount of Aβ monomeric species ([2]; 1 and 10 μM Aβ, 24 and 72 hours): decreases in a dose-dependent manner
- metabolism to final steroid products / steroid formation [3]: could not be metabolized to final steroid products; also recorded: unable to induce steroid formation
- reversal of Aβ-induced decrease in ATP levels [4]: able to reverse; also recorded: blocked, although in part
- neuroprotective effect against 10 μM Aβ, membrane potential luminescence [5]: replicated by the raise of the signal
- dose-dependence of the neuroprotective effect ([6]; FIG. 15, 0.1, 1.0 and 10.0 μM Aβ): dose-dependent
- effect on Aβ-induced cell death (trypan blue uptake) ([6]; SP233 at 30 and 50 μM, 0.1, 1 and 10 μM Aβ): inhibited the Aβ-induced cell death
- protection against 0.1 μM Aβ ([7]; 0.1 μM Aβ): 75%
- neuroprotective effect compared with SP222 ([7]; MTT, 0.1 μM Aβ): significantly more robust effect than SP222
- neuroprotection against 0.1 μM Aβ-induced neurotoxicity [7, 8]: displayed neuroprotective activity
- neuroprotection against 1 μM Aβ-induced neurotoxicity [7, 8]: maintained their neuroprotective properties
- neuroprotection against 10 μM Aβ-induced neurotoxicity [7, 8]: kept this property; also recorded: exhibited neuroprotective activity
- neuroprotection against Aβ-induced neurotoxicity (structure/activity discussion) ([7]; PC12 cells): the most potent compound
- neuroprotection in vitro against Aβ at concentrations as low as ([7]; all assays used): 10 µM
